Source: patent US6803233B2, “Model for Alzheimer's disease and other neurodegenerative diseases” (priority 2000, dated 2004)
Entries after “also recorded” stand apart in the source; their conditions may differ.

Experiments:
basophilic granules = assay: Semithin section histology (toluidine blue) of cultured mouse hippocampal slices; format: cell-based; settings: 20 μM ZPAD, six days; wild-type and apoE-deficient slices
Description: To prepare semithin sections, control and treated slices from both wild-type and apoE-deficient mice were fixed in a solution of 0.1M phosphate buffer (“PB”; pH 7.2), containing 1.5% paraformaldehyde and 1.5% glutaraldehyde. After a period of two to three hours, the solution was removed and the slices were rinsed three times in phosphate buffered saline (“PBS”; 50 mM phosphate buffer, 0.9% NaCl, pH 7.3). At this time, slices were postfixed in 2% osmium tetroxide in PB for one hour, dehydrated in a series of alcohols and embedded in Polybed-812. Semithin (1 μm thick) sections were cut on a Sorvall Porter-Blum ultramicrotome and stained with a solution of 0.1% toluidine blue. Digitized images were imported using a Sony DKC-5000 camera attached to a Zeiss microscope and processed using Adobe Photoshop™.

reactive microglia = assay: ED-1 immunocytochemistry of cultured brain explants; format: cell-based, rat; settings: ZPAD 20 μM, mevastatin 20 μM or PD98059 50 μM alone, 6 days
Description: Immunocytochemical studies using the monoclonal antibody ED-1 that recognizes reactive microglia were used at 1:1000 dilution following standard immunohistochemical procedures. Microglial activation was determined by measuring cell numbers, optical density, and size of cell bodies using the program NIH Image. Brain tissue was cultured for 12 days and treated with ZPAD (20 μM) in the presence or absence of PD98059 (50 μM) for 6 days (FIG. 18). Cultured explants were then sliced and stained by using monoclonal antibody ED-1 which recognizes reactive microglia, a classical marker of inflammation. […] Cultured brain explants were then sliced and stained by using monoclonal antibody ED-1, a classical marker for reactive microglia and macrophages.

cathepsin D = settings: literature report; cited from earlier work
tau proteins = assay: Immunoblot with tau-1 antibody in cultured mouse hippocampal slices; format: cell-based; settings: six days of ZPAD; for reduction in native tau proteins (50-55 kDa): mean±s.e.m., n=6
Description: Hippocampal slices were prepared from 10 to 13 day old C57BL/6J (wild-type) and C57BL/6J-ApoE^tm1Unc (ApoE-knockout) mice obtained from the Jackson laboratory, Bar Harbor, Me. Pups were placed under light bromo-chloro-trifluoroethane anesthesia (Sigma, St. Louis, Mo.), and killed by decapitation. After removing the brains, the hippocampus was dissected and subsequently placed on a McIlwain tissue chopper where slices (400 μm thick) were obtained and placed in a solution of cutting medium consisting of Minimum Essential Medium (MEM) with Earle's salts (Gibco, Grand Island, N.Y.), 25 mM HEPES buffer, 10 mM Tris base, 10 mM glucose, and 3 mM MgCl2, pH 7.20. Hippocampal slices were then placed onto the membranes of Millicell-CM culture inserts (Millipore Corp., Bedford, Mass.) in 6 well culture cluster plates and 1 ml of media per well using the methods described by Stoppini et al., J. Neurosci. Methods 37(2):173-82 (1991). The culture medium was described previously by Bednarski et al., J. Neurosci. 17(11):4006-21 (1997). The cultures were incubated in a 37° C. atmosphere containing 5% CO2 and the culture medium was replaced every other day until the initiation of experiments. Each culture cluster plate contained hippocampal slices from either two wild-type or two apoE-knockout mice and individual wells were used for matched control and experimental treatment groups.
After maintaining the slices with normal culture medium (Bednarski et al., J. Neurosci. 17(11):4006-21 (1997)) in vitro for 12-14 days, slices were incubated with culture medium containing either 20 μM N-CBZ-L-phenylalanyl-L-alanine-diazomethyl-ketone (ZPAD; BACHEM Bioscience, Inc., Torrance, Calif.), an inhibitor of cathepsins B and L (Shaw & Dean, Biochem. J. 186:385-390 (1980); Green & Shaw, J Biol Chem. 256:1923-1928 (1981); Richardson et al., J. Cell Biol. 107: 2097-2107 (1988)) or vehicle (dimethylsulfoxide; DMSO, 0.01%-0.04%) for six days. This treatment media was exchanged every other day.
Control and ZPAD-treated slices were collected in ice-cold 10 mM Tris-HCl harvest buffer consisting of 0.32 M sucrose, 2 mM EDTA, 2 mM EGTA, and 0.1 mM leupeptin, pH 7.4, and centrifuged at 12,000×g for 5 minutes at 4° C. At this point, the pellets were resuspended in lysis buffer (8 mM HEPES, 1 mM EDTA, 0.3 mM EGTA, pH 8.0) and sonicated. The Bradford analysis was performed (Bradford, M, Anal. Biochem 72:248-254 (1976)) and 100-120 μg of protein from each sample was denatured by boiling for 5 min with 2.5% (wt/vol) sodium dodecyl sulfate (SDS) and 3% 2-mercaptoethanol and then subjected to SDS-PAGE on 10% linear gradient gels. See Laemmli et al., J. Mol. Biol. 47:69-85 (1970). […] Relative optical densities and areas of immunobands were quantified using the NIH image analysis system.

tau = assay: Immunoblot of tau (tau-1, AT8) in cultured rat hippocampal slices; format: cell-based; settings: rat hippocampal slices; 6 days
Description: Immunoblotting was carried out by using anti-non phosphorylated tau antibody, tau-1 or anti-phosphorylated tau antibody, AT8.
Cultures of hippocampal slices were prepared from 10-12 days old rats.

N-CBZ-L-phenylalanyl-L-alanine-diazomethyl-ketone [ZPAD]
number of basophilic granules (lysosomes) (basophilic granules): increase in the number of basophilic granules
reaction of microglia (ED-1 staining) (reactive microglia): triggered significant reaction of microglia
enzymatically active cathepsin D (cathepsin D): increases in enzymatically active cathepsin D
increase in levels of the 15-35 kDa tau fragments (tau proteins; apoE-knockout mouse slices): 277±20%
reduction in native tau proteins (50-55 kDa) (tau proteins; apoE-knockout mouse slices): 35±1.1%
increase in levels of the 15-35 kDa tau fragments (tau proteins; wild-type mouse slices): 240±19%
reduction in native tau proteins (50-55 kDa) (tau proteins; wild-type mouse slices): 22±2.6%
native tau proteins (tau-1 blot) (tau): decreases in the native tau proteins; also recorded: induced a truncation of native tau proteins
tau fragments (tau-1 blot) (tau): increases in fragments at apparent molecular weights of 40, 33, and 29 kDa; also recorded: generation of tau fragments
